In ChEMBL document CHEMBL5608181, “Discovery of indazole inhibitors for heat shock protein 90 as anti-cancer agents” (Eur J Med Chem, 2024):

What was measured:
BT-474 = assay: Antiproliferative activity against human BT-474 cells assessed as inhibition of cell viability at 10 uM measured after 72 hrs by CellTiter 96 Aqueous One Solution Cell Proliferation Assay relative to control; assay type: functional
JIMT-1 = assay: Antiproliferative activity against human JIMT-1 cells assessed as inhibition of cell viability at 10 uM measured after 72 hrs by CellTiter 96 Aqueous One Solution Cell Proliferation Assay relative to control; assay type: functional
HEK293 = assay: Cytotoxicity against HEK293 cells assessed as reduction in cell viability at 10 uM measured after 72 hrs by CellTiter 96 Aqueous One Solution Cell Proliferation Assay; assay type: toxicity, cell-based; conditions: human, hek293, 72 h
CYP2C9 = CYP2C9 (Homo sapiens, UniProt P11712); assay: Inhibition of CYP2C9 (unknown origin) at 10 uM relative to control; assay type: ADME
Chain of CYP2C9 (P11712 whole entry): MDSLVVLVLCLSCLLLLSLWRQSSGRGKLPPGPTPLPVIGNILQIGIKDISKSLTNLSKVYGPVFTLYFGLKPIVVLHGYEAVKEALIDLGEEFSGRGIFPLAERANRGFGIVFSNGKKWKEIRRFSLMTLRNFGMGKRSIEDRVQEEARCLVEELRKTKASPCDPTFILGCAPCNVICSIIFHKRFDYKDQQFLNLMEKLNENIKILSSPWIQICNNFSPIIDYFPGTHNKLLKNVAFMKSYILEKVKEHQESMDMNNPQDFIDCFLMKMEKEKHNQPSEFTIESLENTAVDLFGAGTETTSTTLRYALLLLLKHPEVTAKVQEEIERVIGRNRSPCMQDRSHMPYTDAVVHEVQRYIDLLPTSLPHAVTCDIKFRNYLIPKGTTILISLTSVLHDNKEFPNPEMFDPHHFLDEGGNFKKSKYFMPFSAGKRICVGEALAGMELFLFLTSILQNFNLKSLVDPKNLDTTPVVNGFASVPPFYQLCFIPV

CYP2C19 = CYP2C19 (Homo sapiens, UniProt P33261); assay: Inhibition of CYP2C19 (unknown origin) at 10 uM relative to control; assay type: ADME
Chain of CYP2C19 (P33261 whole entry): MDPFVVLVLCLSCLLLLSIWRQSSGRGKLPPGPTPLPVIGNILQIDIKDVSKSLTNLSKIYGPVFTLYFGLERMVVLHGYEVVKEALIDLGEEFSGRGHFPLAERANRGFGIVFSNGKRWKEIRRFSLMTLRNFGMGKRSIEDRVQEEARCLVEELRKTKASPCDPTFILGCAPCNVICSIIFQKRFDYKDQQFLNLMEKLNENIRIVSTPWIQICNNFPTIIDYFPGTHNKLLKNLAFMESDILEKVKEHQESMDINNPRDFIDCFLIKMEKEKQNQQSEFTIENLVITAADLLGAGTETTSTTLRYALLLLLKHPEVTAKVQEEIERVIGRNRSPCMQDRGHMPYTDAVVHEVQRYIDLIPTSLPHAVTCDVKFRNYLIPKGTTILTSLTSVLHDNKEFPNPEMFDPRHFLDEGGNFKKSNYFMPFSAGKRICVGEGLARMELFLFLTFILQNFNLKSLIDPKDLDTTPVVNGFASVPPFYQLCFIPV

CYP3A4 = CYP3A4 (Homo sapiens, UniProt P08684); assay: Inhibition of CYP3A4 (unknown origin) at 10 uM relative to control; assay type: ADME
Chain of CYP3A4 (P08684 whole entry): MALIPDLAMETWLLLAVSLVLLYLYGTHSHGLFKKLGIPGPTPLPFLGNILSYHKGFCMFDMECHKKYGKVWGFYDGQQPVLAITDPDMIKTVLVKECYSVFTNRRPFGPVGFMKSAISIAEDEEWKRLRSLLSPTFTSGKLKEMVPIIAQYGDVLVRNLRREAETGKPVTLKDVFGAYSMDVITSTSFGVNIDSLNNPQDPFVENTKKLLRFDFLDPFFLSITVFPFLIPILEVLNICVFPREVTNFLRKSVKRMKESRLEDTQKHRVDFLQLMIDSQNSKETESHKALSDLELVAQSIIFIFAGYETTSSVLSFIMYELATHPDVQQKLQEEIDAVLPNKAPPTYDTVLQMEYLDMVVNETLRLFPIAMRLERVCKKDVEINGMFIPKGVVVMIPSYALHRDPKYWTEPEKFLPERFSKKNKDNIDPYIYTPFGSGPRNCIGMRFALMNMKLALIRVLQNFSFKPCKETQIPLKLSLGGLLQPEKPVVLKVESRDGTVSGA

CYP1A2 = molecular target: T1, CYP1A2 (Homo sapiens, UniProt P05177); assay: Inhibition of CYP1A2 (unknown origin) at 10 uM relative to control; assay type: ADME
T1 sequence (P05177 whole entry): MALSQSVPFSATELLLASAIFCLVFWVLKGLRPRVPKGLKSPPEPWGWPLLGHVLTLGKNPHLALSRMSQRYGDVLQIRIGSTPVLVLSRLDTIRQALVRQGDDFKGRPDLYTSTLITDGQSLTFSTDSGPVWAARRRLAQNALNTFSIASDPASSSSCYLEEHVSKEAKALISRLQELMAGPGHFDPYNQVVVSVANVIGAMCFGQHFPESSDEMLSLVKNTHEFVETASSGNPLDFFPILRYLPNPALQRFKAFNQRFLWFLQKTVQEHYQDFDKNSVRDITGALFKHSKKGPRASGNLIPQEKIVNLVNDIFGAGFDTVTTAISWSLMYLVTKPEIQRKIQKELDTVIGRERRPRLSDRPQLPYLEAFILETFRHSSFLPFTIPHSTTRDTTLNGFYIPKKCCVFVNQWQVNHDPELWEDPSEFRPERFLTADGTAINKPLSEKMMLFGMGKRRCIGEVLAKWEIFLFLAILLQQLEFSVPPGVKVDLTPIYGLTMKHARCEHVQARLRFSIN

SMILES	inhibition at 10 µM (BT-474) [%]	inhibition at 10 µM (JIMT-1) [%]	Activity (HEK293)	inhibition at 10 µM (CYP2C9) [%]	inhibition at 10 µM (CYP2C19) [%]	inhibition at 10 µM (CYP3A4) [%]	inhibition at 10 µM (CYP1A2) [%]
COCCn1nc(NC(=O)c2ccc3c(c2OC)C=CC(C)(C)O3)c2ccccc21	> 50	> 50	Toxic	–	–	–	–
CC(=O)N1CCN(c2ccc(OCC3COC(Cn4ccnc4)(c4ccc(Cl)cc4Cl)O3)cc2)CC1 (configuration not stated) [KETOCONAZOLE]	–	–	–	96.8	> 100	32	> 100
